These results are taken from US20100251435A1, “METHOD FOR GROWING SUGARCANE” (priority 2007, published 2010).

Common to all, as to assay type: in vivo
Assay [1] relates to sugar cane Variety RB 86-7515. As to the kind of experiment: Greenhouse pot test, effect of formulated clothianidin on vigour. Conditions: carretels; result in words.
Description: Greenhouse test with sugarcane buds growing in pots were conducted to study the effect of clothianidin equivalent to an application rate of 200 g ai. ha^−1 on “vigour”, evaluating tillers, plant height, leaf width and culm diameter. This trial was conducted on sugar cane Variety RB 86-7515.
1) carretel with one bud treated with clothianidin (200 g ai. ha^−1) 2) carretel with one bud treated with clothianidin (200 g ai. ha^−1)+15% v/v of polymer 3) stalk with 3 buds untreated 4) carretel with one bud untreated+15% v/v of polymer 5) carretel with one bud untreated 6) stalk with 3 buds treated with clothianidin (200 g ai. ha^−1).
Twenty 1 L pots were filled with 16 L of clay soil, 1.6 L of sand and 8 g of nitrogen, 28 g of phosphorus (P2O5) and 16 g of potassium (K2O). Six carretels of 4 cm length with one bud were planted in each pot (treatments 1, 2, 4 and 5). Two stalks with three buds were planted in each control pot (treatments 3 and 6) to simulate conventional planting. A layer of 3 cm of soil was used to cover the carretels. The carretels of treatments 1 and 2 were treated with 200 g ai.ha^−1 of clothianidin, by dipping the carretels in a slurry for 3 min. The stalks were treated simulating a furrow application at 100 L.ha^−1 of slurry. The pots were maintained with adequate moisture during the test. […]
The subject of assay [2] is sugar cane Variety RB 86-7515. As to the kind of experiment: Greenhouse pot test, effect of formulated fipronil on vigour. The conditions noted are these: result in words.
Description: Greenhouse test with sugarcane buds growing in pots were conducted to study the effect of fipronil equivalent to an application rate of 200 g. ha^−1 on “vigour”, evaluating tillers, plant height, leaf width and culm diameter on sugar cane Variety RB 86-7515.
Twenty 1 L pots were filled with 16 L of clay soil, 1.6 L of sand and 8 g of nitrogen, 28 g of phosphorus (P2O5) and 16 g of potassium (K2O). Six carretels of 4 cm length with one bud were planted in each pot (treatments 1, 2, 4 and 5). Two stalks with three buds were planted in each control pot (treatments 3 and 6) to simulate conventional planting. A layer of 3 cm of soil was used to cover the carretels. The carretels of treatments 1 and 2 were treated with 200 g ai.ha^−1 of fipronil, by dipping the carretels in the slurry for 3 min, based on the uptake capacity of carretels. The stalks were treated simulating a furrow application at 100 L.ha^−1 of slurry. Experimental design adopted was randomized complete block with four replications. The pots were maintained with adequate moisture during the test. Evaluations of: plant height, leaf width, culm diameter and number of tillers were done at 20, 30 and 42 days after planting.
Assay [3] deals with sugar cane Variety RB 86 7515. As to the kind of experiment: Greenhouse pot test, effect of formulated imidacloprid on vigour. The conditions noted are these: result in words.
Excerpt: 1) carretel with one bud treated with Imidacloprid (1200 g. ha^−1) 2) carretel with one bud treated with Imidacloprid (1200 g. ha^−1)+15% v/v of polymer 3) stalk with 3 buds untreated 4) carretel with one bud untreated 5) carretel with one bud untreated+15% v/v of polymer 6) stalk with 3 buds treated with Imidacloprid (1200 g. ha^−1).
Twenty 1 L pots were filled with 16 L of clay soil, 1.6 L of sand and 8 g of nitrogen, 28 g of phosphorus (P2O5) and 16 g of potassium (K2O). Six carretels of 4 cm length with one bud were planted in each pot (treatments 1, 2, 4 and 5). Two stalks with three buds were planted in each control pot (treatments 3 and 6) to simulate conventional planting. A layer of 3 cm of soil was used to cover the carretels. The carretels of treatments 1 and 2 were treated with 1200 g ai.ha^−1 of imidacloprid, by dipping the carretels in the slurry for 3 min, based on the uptake capacity of carretels. The stalks were treated simulating a furrow application at 100 L.ha^−1 of slurry. Experimental design adopted was randomized complete block with four replications. The pots were maintained with adequate moisture during the test. Evaluations of: plant height, leaf width, culm diameter and number of tillers were done at 20, 30 and 42 days after planting.
The test system of assay [4] is sugar cane Variety RB 86-7515. Put plainly: Greenhouse pot test, effect of formulated thiamethoxam on vigour. The conditions noted are these: result in words. The method, then: This trial was conducted on Variety RB 86-7515.
Assay [5] deals with sugar cane Variety RB 86-7515. As to the kind of experiment: Greenhouse pot test, effect of formulated abamectin on vigour.
Description: Greenhouse test with sugarcane buds growing in pots were conducted to study the effect of formulated abamectin regarding “vigour”, tillers, plant height, leaf width and culm diameter on sugar cane Variety RB 86-7515.
1) carretel with one bud treated with abamectin 2) carretel with one bud treated with abamectin+15% v/v of polymer 3) stalk with 3 buds untreated 4) carretel with one bud untreated 5) carretel with one bud untreated+15% v/v of polymer 6) stalk with 3 buds treated with abamectin.
Twenty 1 L pots were filled with 16 L of clay soil, 1.6 L of sand and 8 g of nitrogen, 28 g of phosphorus (P2O5) and 16 g of potassium (K2O). Six carretels of 4 cm length with only one bud were planted in each pot (treatments 1, 2, 4 and 5). Two stalks with three buds were planted in each control pot (treatments 3 and 6) to simulate conventional planting. A layer of 3 cm of soil was used to cover the carretels. The carretels of treatments 1, 2 were treated with 200 ml/ha of abamectin, by dipping the carretels in the slurry for 3 min, based on the uptake capacity of carretels. The stalks were treated simulating a furrow application at 100 L.ha^−1 of slurry. Experimental design adopted was randomized complete block with four replications. The pots were maintained with adequate moisture during the test. Evaluations of: plant height, leaf width, culm diameter and number of tillers were done at 20, 30 and 42 days after planting.

On to `CN/C(=N\[N+](=O)[O-])NCc1cnc(Cl)s1` [Clothianidin, clothianidin], for which, in assay [1], the “number of tillers in comparison with the corresponding control experiment (untreated, one-bud)” value was “increased” and the “plant height in comparison with the corresponding control experiment (untreated, one-bud)” value is “slight reduction”.

Consider `N#Cc1nn(-c2c(Cl)cc(C(F)(F)F)cc2Cl)c(N)c1[S+]([O-])C(F)(F)F` (stereo not drawn) [Fipronil, fipronil], for which, in assay [2], the “height of the resultant plants in comparison with the control” value is given as “decreased” and the “number of tillers in comparison with the control” value (“number … with the control” for short) is listed as “increased”.

`O=[N+]([O-])NC1=NCCN1Cc1ccc(Cl)nc1` [Imidacloprid, imidacloprid]: in assay [3], the “number … with the control” value is reported as “increase” and the “size of the effect compared with the other active ingredients” value is “less pronounced than with the other active ingredients”.

`CN1COCN(Cc2cnc(Cl)s2)/C1=N\[N+](=O)[O-]` [Thiamethoxam, thiamethoxam]: in assay [4] (carretels), the “number of tillers in comparison with the corresponding controls” value was “increased” and the “plant height in comparison with the corresponding controls” value is listed as “reduced”. For the same molecule, in assay [4] (practical assessment, not apparent from the listed parameters), the “overall "quality" compared with the other treatments” value is on record as “increase in “quality” greater than the other treatments”.

As for abamectin, the Tillers in assay [5] (Carretel with one bud, 100 g ai/ha, dipped in slurry 3 min, 42 days after planting) is given as 14 number. Moreover, in assay [5] (result in words), the “number … with the control” value was “increase” and the “plant height in comparison with the control” value was “decrease”.
